Results on 4 molecules are retold here after ChEMBL document CHEMBL1201862, “PubChem BioAssay data set” (2004).

Among the test systems are 786-0; A549; BT-549; CAKI-1; DU-145; HL-60; HOP-62; LOX IMVI; M14; NCI-H226; NCI/ADR-RES; OVCAR-3; OVCAR-4; PC-3; SF-268; SK-MEL-2; SNB-19; SNB-75; TK-10; UACC-257.
Assay in all cases: NCI tumour cell line growth inhibition, 48 h

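Briefly, cells in 96-well plates were exposed to five compound concentrations for 48 h, and endpoints were estimated by linear interpolation. GI50 is the concentration that inhibits growth by half.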 The source made the active and inactive calls. Rule as the data show it: active = GI50 up to about 1.1 µM and inactive = higher. Where only a bound is given, the exact number is not on record here.

As to `Cc1ccc(CSC(=N)Nc2ccccc2)cc1C`, the GI50 is 19.3 µM (inactive) in the experiment on 786-0; 28.3 µM (inactive) in the experiment with A549; 22.3 µM (inactive) in the experiment with BT-549; 19.9 µM (inactive) in the experiment with CAKI-1; 20.7 µM (inactive) in the experiment on DU-145; 30.3 µM (inactive) in the experiment on HL-60. Also, the GI50 was 23.7 µM (inactive) in the experiment on HOP-62; 18.9 µM (inactive) with LOX IMVI; 19.1 µM (inactive) in the experiment with M14; 20.9 µM (inactive) with NCI-H226; 20.4 µM (inactive) in the experiment with NCI/ADR-RES; 19.3 µM (inactive) in the experiment with OVCAR-3. Besides, the GI50 in the experiment on OVCAR-4 was 16.1 µM (inactive); in the experiment on PC-3 it was 22.5 µM (inactive); with SF-268, 17 µM (inactive); with SK-MEL-2, 16.7 µM (inactive); in the experiment on SNB-19 it was 23.7 µM (inactive); in the experiment on SNB-75, 25.8 µM (inactive). The results for the GI50 with TK-10 and with UACC-257 were 28.5 µM (inactive) and 17.4 µM (inactive), respectively.
Regarding `O[C@@H]1C[C@H]2N3CC[C@@]2(c2cc4c(cc2C3)OCO4)[C@H]2O[C@@H]12`, the GI50 in the experiment with 786-0, in the experiment with A549, in the experiment with BT-549, with CAKI-1, in the experiment on DU-145 and with HL-60 was > 100 µM (inactive) in each case. In addition, the GI50 in the experiment on HOP-62 was > 100 µM (inactive); with LOX IMVI it was > 100 µM (inactive); with M14, > 100 µM (inactive); in the experiment on NCI-H226 it was 0.0271 µM (active); with NCI/ADR-RES, > 100 µM (inactive); with OVCAR-3, > 100 µM (inactive). Also, the GI50 in the experiment with OVCAR-4, in the experiment with PC-3, in the experiment with SF-268, in the experiment on SK-MEL-2, with SNB-19 and with SNB-75 was > 100 µM (inactive) each time. In addition, the GI50 with TK-10 is > 100 µM (inactive); in the experiment with UACC-257, 90.4 µM (inactive).
Take `C/C=C/C(O)P1(=O)N(Cc2ccccc2)[C@@H]2CCCC[C@H]2N1Cc1ccccc1` (stereo not given in full): the GI50 in the experiment on 786-0, in the experiment with A549, in the experiment on BT-549, in the experiment on CAKI-1, in the experiment on DU-145 and in the experiment with HL-60 was > 25 µM (inactive) throughout. For the same molecule, the GI50 in the experiment on HOP-62, with LOX IMVI, in the experiment with M14, with NCI-H226, with NCI/ADR-RES and in the experiment on OVCAR-3 was > 25 µM (inactive) in each case. Besides, the GI50 in the experiment with OVCAR-4, with PC-3, in the experiment on SF-268, in the experiment on SK-MEL-2, in the experiment with SNB-19 and with SNB-75 was > 25 µM (inactive) in each case. For the same molecule, the GI50 in the experiment with TK-10 and with UACC-257 was > 25 µM (inactive) in each case.
In the case of `C/C(=C\c1csc(C)n1)[C@@H]1C[C@@H]2O[C@@H]2CCC[C@H](C)[C@H](O)[C@@H](C)C(=O)C(C)(C)[C@@H](O)CC(=O)O1` [EPOTHILONE A], the GI50 with 786-0, in the experiment with A549, in the experiment on BT-549, in the experiment with CAKI-1, with DU-145 and with HL-60 was < 0.0001 µM (active) each time. For the same molecule, the GI50 with HOP-62 is < 0.0001 µM (active); with LOX IMVI it was < 0.0001 µM (active); in the experiment with M14, < 0.0001 µM (active); with NCI-H226, < 0.0001 µM (active); in the experiment with NCI/ADR-RES it was 0.000113 µM (active); with OVCAR-3, < 0.0001 µM (active). In addition, the GI50 in the experiment on OVCAR-4 is 0.124 µM (active); in the experiment with PC-3, < 0.0001 µM (active); in the experiment on SF-268, < 0.0001 µM (active); in the experiment with SK-MEL-2, < 0.0001 µM (active); in the experiment with SNB-19 it was < 0.0001 µM (active); in the experiment with SNB-75 it was < 0.0001 µM (active). The GI50 with TK-10 is 0.0167 µM (active); in the experiment with UACC-257, < 0.0001 µM (active).
